In the test the target is T1, Adprt2 (Dictyostelium discoideum, UniProt Q8I7C6).
T1 construct: recombinant His-tagged, expressed and purified from bacteria
T1 sequence (Q8I7C6 1-700): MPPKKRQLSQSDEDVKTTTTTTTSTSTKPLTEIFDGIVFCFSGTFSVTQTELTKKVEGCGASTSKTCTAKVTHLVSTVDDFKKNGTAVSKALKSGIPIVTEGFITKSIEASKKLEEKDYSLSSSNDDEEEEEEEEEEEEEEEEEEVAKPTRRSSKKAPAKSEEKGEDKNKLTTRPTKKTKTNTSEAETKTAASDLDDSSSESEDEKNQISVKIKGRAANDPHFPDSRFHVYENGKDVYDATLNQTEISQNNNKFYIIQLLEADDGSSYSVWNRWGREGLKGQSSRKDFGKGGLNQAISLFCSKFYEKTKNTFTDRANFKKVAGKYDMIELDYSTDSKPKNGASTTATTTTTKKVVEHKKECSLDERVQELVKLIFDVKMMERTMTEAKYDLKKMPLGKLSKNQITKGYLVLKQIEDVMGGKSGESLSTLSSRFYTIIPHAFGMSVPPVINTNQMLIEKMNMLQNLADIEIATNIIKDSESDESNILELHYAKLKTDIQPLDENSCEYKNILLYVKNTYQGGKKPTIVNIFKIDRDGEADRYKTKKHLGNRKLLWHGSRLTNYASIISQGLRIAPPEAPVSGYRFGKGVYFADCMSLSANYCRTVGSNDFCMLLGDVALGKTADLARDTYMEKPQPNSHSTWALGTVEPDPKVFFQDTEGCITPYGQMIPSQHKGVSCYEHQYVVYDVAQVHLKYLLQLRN
The experiment in a line: auto-ADP-ribosylation, […]-NAD+, SDS-PAGE and phosphorimager. The class given is biochemical. As to conditions: room temperature.

[1] abbreviates: 75 uM NAD+, 100 nM 32P-NAD+, 1 uM enzyme, Tris-HCl pH 8, 2 mM MgCl2, sheared salmon sperm DNA, 30 min.

In the case of `NC(=O)c1ccc[n+]([C@@H]2O[C@H](COP(=O)(O)OP(=O)(O)OC[C@H]3O[C@@H](n4cnc5c(N)ncnc54)[C@H](O)[C@@H]3O)[C@@H](O)[C@H]2O)c1` [NAD+], the “auto-ADP-ribosylation, 32P-NAD+, SDS-PAGE and phosphorimager” value (75 uM NAD+ plus 100 nM 32P-NAD+ (labelled compound), pH 8, 2 mM MgCl2, sheared salmon sperm DNA) was “ADP-ribosylated species that co-migrates with recombinant Adprt1a or Adprt2 in our assays”.
For `CNCc1ccc(-c2[nH]c3cc(F)cc4c3c2CCNC4=O)cc1` [rucaparib], the “auto-ADP-ribosylation, 32P-NAD+, SDS-PAGE and phosphorimager” value under setting [1] is “olaparib and rucaparib are more effective at inhibiting Adprt1a than Adprt2”.
Still for that read-out and setting: for `O=C(c1cc(Cc2n[nH]c(=O)c3ccccc23)ccc1F)N1CCN(C(=O)C2CC2)CC1` [olaparib] the value was “olaparib and rucaparib are more effective at inhibiting Adprt1a than Adprt2”.
Still for that read-out and setting: to `Cc1nc2c(O)cccc2c(=O)[nH]1` [NU1025] belongs “these agents inhibit auto-ribosylation of the SSB-responsive ART Adprt2”.

The values are drawn from publication PMC5622368, “Redundancy between nucleases required for homologous recombination promotes PARP inhibitor resistance in the eukaryotic model organism Dictyostelium” (Nucleic Acids Research, 2017).
